Test results from patent publication US20260138976A1 (Hoffmann-La Roche Inc., priority 2022, published 2026).
“And” between values parts separate entries of the source, which are not always exact repeats. Equal values may be shown once. Blank lines part the entries; values can stand above or below the compound they belong to.

Experiments:
[1] = molecular target: T1, DGKζ (hDGKzeta(1-928)-N-His) (Homo sapiens, UniProt Q13574); assay: In vitro DGK inhibition assay, DGKzeta ADP Glo (in house); format: biochemical; details: 2 nM DGKζ, 50 μM ATP, 125 uM DLG in liposomes, 1 hour reaction
T1 construct: hDGKzeta(1-928)-N-His; His (N); made in house; host or cells: Sf21 insect cells (baculovirus)
Experimental: DGKα and ζ kinases use ATP to phosphorylate the substrate 1,2-dilauroyl-sn-glycerol (DLG, incorporated in the liposomes). ATP is converted to ADP as a result of this enzymatic reaction. After the kinase reaction, an ATP-depletion reagent is added to terminate the kinase reaction and deplete any remaining ATP, leaving only ADP. Second, a detection reagent is added to simultaneously convert ADP to ATP and allow the newly synthesized ATP to be converted to light using a coupled luciferase/luciferin reaction.
Full length DGKα and ζ were expressed in Sf21 insect cells by infecting the cells with the baculovirus stock at MOI of 2. Purification of both enzymes was performed as previously described by Takahashi et al., PeerJ, 2018 (Takahashi, D.; Sakane, F. Expression and purification of human diacylglycerol 5 kinase alpha from baculovirus-infected insect cells for structural studies. PeerJ2018, 6, No. e5449).
A concentrated liposome solution was prepared in assay buffer without DTT and BSA: 2 mM of DLG in 21 mM of total liposome (2 mM DLG/8 mM PS/11 mM PC). The reaction mixtures contain the assay buffer with a final DLG concentration of 125 uM ATP concentrations of 25 μM (for DGKA assay) or 50 μM (for DGKZ assay). The reactions were started by addition of DGK α and ζ kinases at 4 nM and 2 nM final concentrations, respectively. After 1 hour reaction, the amount of ADP formed was detected with the ADP-Glo kinase assay (Promega) according to the manufacturer instructions. Compounds were added in 11-points dose response, starting at […], 1:3 dilutions, with a final DMSO concentration of 2%. The multidrop combi was used as a liquid handler and luminescence was read with 0.5 s by the envision reader (PE).

[2] = test system: primary human T-cells; assay: IL2 secretion measurements (24 h, CD3-stimulated T-cells, PBS counter screen); format: cell-based; details: for EC50: CD3-stimulated primary human T-cells, IL2 secretion, fitted sigmoidal curve, read-out: Tcell IL2 CD3 EC50; for Emax IL2 (% activation): CD3 condition, normalised to DMSO (neutral) and 20 μM reference compound A1 = 100%
Experimental: (§1) As readouts for T-cell activation, 1L2 secretion after 24 hours and proliferation after 5 days was measured. Increases in IL2 secretion and proliferation upon compound treatment were assessed as the % of the maximum of reference compound A1. WO 2016/139181 discloses reference compound A1 as example 70. As a counter screen and to make sure that no unwanted TCR-independent activation was triggered, PBS conditions were run for all compounds.
Expanded primary human T-cells were thawed and cultured in RPMI 1640 (Gibco, #61870-010)+5% human serum (HS, Sigma, #H3667)+1 mM Sodium Pyruvate (Gibco, #11360-039)+50 μM 2-mercaptoethanol (Gibco, #31350-010) and 1× Pen-Strep (Life Technologies, #15140122) medium at density of 2 Mio/ml for 3 hours in 5% CO2, 37° C. and 95% humidity. For coating of plates, […] or PBS++ with CD3 antibody (concentration depending on donor and determined by CD3 titrations) was added 100 μl/well to Poly-D Lysine coated 96-well plates. Plates were sealed and incubated at room temperature for 3 hours on a table-top rocking platform. After incubation, plates were washed once with PBS−− and filled with 40 μl/well culture medium only. Compounds were then added (see next section) to medium only plates. After 3 hours of culturing the T-cells, cells were filtered through a cell strainer (Miltenyi Biotech, #130-041-407), counted again and concentration was adjusted to 1.25 Mio/ml.
Cells were then seeded 80 μl/well to the 40 μl/well including dispensed compounds according to plate layout. By adding cells, compounds were further diluted 1:3, and resulting in 100 k cells/120 μl/well. After 24 hours 40 μl of supernatant was collected carefully from the top while not disturbing the cells and transferred into a round bottom 96 well plate. Collected and frozen supernatant was used for detection of IL2 using the IL-2 Human ProQuantum Immunoassay Kit (Invitrogen) or using the Human IL-2 ELISA Kit (Thermo Fisher).
(§2) Compounds were added in a 5 or 6 pt dose response with the Tecan D300e Digital Dispenser, all conditions 3 times more concentrated than the end-concentration, since cells are added afterwards (80 μl cells to 40 μl prepared medium with treatment). The DR was starting at 20 μM or 10 μM final top concentration and a dilution factor of 3.333. The positive control was the reference compound A1 that was added in a dose response as well, additionally to 3 wells of only 20 μM representing the positive stimulator control. All wells were normalized with DMSO to a final concentration of 0.6% (0.2% end-concentration).
The immunoassay is done following the manufacturer's manual (Invitrogen, #A35603). Additional information: For the immunoassay, MicroAmp™ EnduraPlate™ Optical 384-Well plates are used. Frozen supernatant is thawed and centrifuged for 5 minutes at 1000×g, both steps at 4° C. After centrifugation, required sample amount is taken from the top, and in a separate LightCycler V-bottom plate (working plate) diluted with assay dilution buffer, dilution factor depending on the PBS or CD3 condition but at least 1:3. IL-2 standard and blanks are prepared in the same V-bottom plate, standard with a range of 0.0128-5000 pg/ml (extended version). After preparation, 5 μl of sample dilutions or standard/blanks are transferred to the optical 384-well plate (assay plate) and the 10 μl reaction protocol is being followed. For measurement, the QuantStudio 12K Flex system is used. Raw data is extracted and IL-2 concentrations are calculated with the Thermo Fisher online app (apps.thermofisher.com/apps/proquantum).
ELISA is done following the manufacturer's manual (Thermo Fisher Scientific, #88-7025-88). Additional information: For the ELISA Nunc MaxiSorp 96 well plates are used. Frozen supernatant is thawed and centrifuged for 5 minutes at 1000×g, both steps at 4° C. […]

[3] = test system: primary human T-cells; assay: Proliferation assay (5 days, CellTiter-Glo, CD3-stimulated T-cells); format: cell-based; details: for EC50: CD3-stimulated primary human T-cells, 5 days, CellTiter-Glo, fitted sigmoidal curve, read-out: Tcell Proliferation CD3 EC50; for Emax proliferation (% activation): CD3 condition, normalised to DMSO (neutral) and 20 μM reference compound A1 = 100%
Experimental: as §1
Expanded primary human T-cells are thawed and cultured in RPMI 1640 (Gibco, #61870-010)+5% human serum (HS, Sigma, #H3667)+1 mM Sodium Pyruvate (Gibco, #11360-039)+50 μM 2-mercaptoethanol (Gibco, #31350-010) and 1× Pen-Strep (Life Technologies, #15140122) medium at density of 2 Mio/ml for 3 hours in 5% CO2, 37° C. and 95% humidity. For coating of plates, PBS++ only or PBS++ with CD3 antibody (concentration depending on donor and determined by CD3 titrations) is added 100 μl/well to Poly-D Lysine coated 96-well plates. Plates are sealed and incubated at room temperature for 3 hours on a table-top rocking platform. After incubation, plates are washed once with PBS−− and filled with 40 μl/well culture medium only. Compounds are then added (see next section) to medium only plates. After 3 hours of culturing the T-cells, cells are filtered through a cell strainer (Miltenyi Biotech, #130-041-407), counted again and concentration is adjusted to 1.25 Mio/ml.
Cells are then seeded 80 μl/well to the 40 μl/well including dispensed compounds according to plate layout. By adding cells, compounds are further diluted 1:3, and resulting in 100 k cells/120 μl/well. After 48 hours 40 μl of supernatant is collected carefully from the top while not disturbing the cells. Cells are assessed for proliferation 5 days later by measuring […] using CellTiterGlo (Promega).
as §2
After 5 days, for detection of ATP which is directly proportional to the number of cells present per well, the CellTiter-Glo® 2.0 Reagent is used. After visual control for toxicity or precipitations of the tested compounds, the plates are equilibrated to room temperature for 45 minutes. CellTiter-Glo® 2.0 Reagent is equilibrated to room temperature as well. After equilibration, an equal amount of CellTiter-Glo reagent is added to the cells (80 μl/well) with an electronic multichannel pipette. Plates are placed on a rocking platform for 15 minutes at room temperature. After incubation, the bottom of the plates is sealed with backing tape. Luminescence is measured with PHERAstar FSX (interval time 0.5 sec, gain 3000, focal height 15 mm) and exported as CSV file for analysis in Genedata screener.
CD3 and PBS plates were analysed separately in Genedata Screener using Roche Normalization PCT_POS_CTRL with DMSO set as Neutral Control and 20 μM of the reference compound A1 set as Stimulator Control/100%.
For CD3 conditions EC50 and Emax of the fitted sigmoidal curve were reported. If no curve could be fitted, the EC50 was reported as blank field and the Emax was based on individual data points. […] Compounds which activate unstimulated cells (see IL2 measurements) or compounds which negatively affected viability were flagged.

T1 sequence (Q13574 whole entry): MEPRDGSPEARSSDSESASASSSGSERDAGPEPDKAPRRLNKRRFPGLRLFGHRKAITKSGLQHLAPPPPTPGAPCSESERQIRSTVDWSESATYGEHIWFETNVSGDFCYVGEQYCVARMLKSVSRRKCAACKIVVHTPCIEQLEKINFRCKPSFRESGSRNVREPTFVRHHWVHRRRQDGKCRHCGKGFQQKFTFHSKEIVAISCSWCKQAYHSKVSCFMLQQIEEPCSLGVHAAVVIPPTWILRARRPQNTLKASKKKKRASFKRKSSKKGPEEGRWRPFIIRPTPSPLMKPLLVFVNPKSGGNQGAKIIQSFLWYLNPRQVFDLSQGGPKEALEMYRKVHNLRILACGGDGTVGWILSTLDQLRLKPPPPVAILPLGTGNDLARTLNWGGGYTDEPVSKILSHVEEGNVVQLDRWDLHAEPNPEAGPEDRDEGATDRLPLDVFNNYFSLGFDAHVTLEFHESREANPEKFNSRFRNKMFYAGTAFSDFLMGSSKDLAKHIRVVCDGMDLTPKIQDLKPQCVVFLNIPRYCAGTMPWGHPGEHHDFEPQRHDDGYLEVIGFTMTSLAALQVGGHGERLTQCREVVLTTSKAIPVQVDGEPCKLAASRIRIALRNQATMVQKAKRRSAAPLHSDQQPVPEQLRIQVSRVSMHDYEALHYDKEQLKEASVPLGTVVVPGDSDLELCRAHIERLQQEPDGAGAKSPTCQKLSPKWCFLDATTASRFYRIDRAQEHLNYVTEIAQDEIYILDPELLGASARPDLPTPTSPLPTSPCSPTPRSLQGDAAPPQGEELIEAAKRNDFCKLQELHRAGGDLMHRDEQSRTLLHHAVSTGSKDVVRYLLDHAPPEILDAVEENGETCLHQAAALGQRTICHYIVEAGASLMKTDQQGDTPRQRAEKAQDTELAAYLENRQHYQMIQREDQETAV

IC50 [1]: 467 nM and 3210 nM
Structure (SMILES): COc1ccc(-c2ccc(CN3C(=O)[C@@H](N)CS(=O)(=O)c4ccc(-c5nnc(C(C)(C)C#N)o5)cc43)cc2)cc1 [Example 45, 2-[5-[(3R)-3-amino-5-[[4-(4-methoxyphenyl)phenyl]methyl]-1,1,4-trioxo-2,3-dihydro-1λ^6,5-benzothiazepin-7-yl]-1,3,4-oxadiazol-2-yl]-2-methyl-propanenitrile]

Structure (SMILES): COC(=O)N1CC2CC(c3nnc(-c4ccc5c(c4)N(Cc4ccc(-c6noc(C(F)(F)F)n6)cc4)C(=O)[C@@H](N)CS5(=O)=O)o3)(C2)C1 [Example 61, methyl 1-[5-[(3R)-3-amino-1,1,4-trioxo-5-[[4-[5-(trifluoromethyl)-1,2,4-oxadiazol-3-yl]phenyl]methyl]-2,3-dihydro-1λ^6,5-benzothiazepin-7-yl]-1,3,4-oxadiazol-2-yl]-3-azabicyclo[3.1.1]heptane-3-carboxylate]
EC50 [2]: 606 nM
Emax IL2 (% activation) [2]: 241 % activation
EC50 [3]: 216 nM
Emax proliferation (% activation) [3]: 228 % activation

Structure (SMILES): COC(F)(c1nnc(-c2ccc3c(c2)N(Cc2ccc(-c4nnc(C(F)(F)F)o4)cc2)C(=O)[C@@H](N)CS3(=O)=O)o1)C(F)(F)F (stereo partly drawn) [Example 67, (3R)-3-amino-1,1-dioxo-7-[5-(1,2,2,2-tetrafluoro-1-methoxy-ethyl)-1,3,4-oxadiazol-2-yl]-5-[[4-[5-(trifluoromethyl)-1,3,4-oxadiazol-2-yl]phenyl]methyl]-2,3-dihydro-1λ^6,5-benzothiazepin-4-one]
Emax IL2 (% activation) [2]: 168 % activation
EC50 ([2]; Homo sapiens, T-cell): 739 nM
Emax proliferation (% activation) [3]: 119 % activation
EC50 ([3]; Homo sapiens, T-cell, 120 h): 262 nM

Structure (SMILES): N[C@H]1CS(=O)(=O)c2ccc(-c3nnc(N4CCC(F)(F)CC4)o3)cc2N(Cc2ccc(-c3noc(C4CC4)n3)cc2)C1=O [Example 69, (3R)-3-amino-5-[[4-(5-cyclopropyl-1,2,4-oxadiazol-3-yl)phenyl]methyl]-7-[5-(4,4-difluoro-1-piperidyl)-1,3,4-oxadiazol-2-yl]-1,1-dioxo-2,3-dihydro-1λ^6,5-benzothiazepin-4-one]
Emax IL2 (% activation) [2]: 83 % activation
EC50 ([2]; Homo sapiens, T-cell): 448 nM
Emax proliferation (% activation) [3]: 125 % activation
EC50 ([3]; Homo sapiens, T-cell, 120 h): 409 nM

Structure (SMILES): N[C@H]1CS(=O)(=O)c2ccc(-c3nnc(N4CCC(F)(F)CC4)o3)cc2N(Cc2ccc(-c3nnc(C(F)F)o3)cc2)C1=O [Example 70, (3R)-3-amino-5-[[4-[5-(difluoromethyl)-1,3,4-oxadiazol-2-yl]phenyl]methyl]-7-[5-(4,4-difluoro-1-piperidyl)-1,3,4-oxadiazol-2-yl]-1,1-dioxo-2,3-dihydro-1λ^6,5-benzothiazepin-4-one]
Emax IL2 (% activation) [2]: 43 % activation
EC50 ([2]; Homo sapiens, T-cell): > 10000 nM
Emax proliferation (% activation) [3]: 76 % activation
EC50 ([3]; Homo sapiens, T-cell, 120 h): 2760 nM

Structure (SMILES): N[C@H]1CS(=O)(=O)c2ccc(-c3nnc(N4CCOC(F)(F)C4)o3)cc2N(Cc2ccc(-c3nnc(C(F)F)o3)cc2)C1=O [Example 82, (3R)-3-amino-5-[[4-[5-(difluoromethyl)-1,3,4-oxadiazol-2-yl]phenyl]methyl]-7-[5-(2,2-difluoromorpholin-4-yl)-1,3,4-oxadiazol-2-yl]-1,1-dioxo-2,3-dihydro-1λ^6,5-benzothiazepin-4-one]
Emax IL2 (% activation) [2]: 25 % activation
EC50 ([2]; Homo sapiens, T-cell): > 10000 nM
Emax proliferation (% activation) [3]: 78 % activation
EC50 ([3]; Homo sapiens, T-cell, 120 h): 6120 nM

Structure (SMILES): NC(c1nnc(-c2ccc3c(c2)N(Cc2ccc(-c4ccc(C(F)(F)F)cc4)cc2)C(=O)[C@@H](N)CS3(=O)=O)o1)C(F)(F)F (stereo partly drawn) [Example 151, (3R)-3-amino-7-[5-(1-amino-2,2,2-trifluoro-ethyl)-1,3,4-oxadiazol-2-yl]-1,1-dioxo-5-[4-[4-(trifluoromethyl)phenyl]phenyl] methyl 1-2,3-dihydro-1λ^6,5-benzothiazepin-4-one]
Emax IL2 (% activation) [2]: 65 % activation
EC50 ([2]; Homo sapiens, T-cell): 903 nM
Emax proliferation (% activation) [3]: 105 % activation
EC50 ([3]; Homo sapiens, T-cell, 120 h): 1850 nM
